Measured values published in PMC11046985 (Neuro-Oncology Advances, 2024).

What was measured:
[1] = parameters: species or system human; details: in vivo
Source text: The opening of a new cohort followed a standard 3 + 3 dose-escalation design and was guided by assessment of all grade toxicities and trends in adverse events seen in subsequent dosing cycles. […] Safety and clinical data were reviewed through day 28 prior to the opening of each cohort level. DLT was defined as any possible drug-related, clinically relevant, grade 3 or 4 non-hematologic toxicity (except alopecia or unmedicated nausea/vomiting), grade 3 nausea, vomiting, or diarrhea of any duration lasting > 24 hours despite standard prophylaxis and/or treatment, grade 4 diarrhea and vomiting of any duration, grade 3 febrile neutropenia (defined as ANC […] with a single temperature of > 38.3° C or a sustained temperature of ≥ 38.3° C for more than 1 hour), grade 4 febrile neutropenia of any duration, grade 4 neutropenia lasting > 7 days (defined as a neutrophil count of < 500/mm^3), grade 4 thrombocytopenia or thrombocytopenia with clinically significant bleeding, grade 4 anemia of any duration, and any clinically significant toxicity that precluded administration of the next scheduled dose beyond 14 days, or dose reduction for any reason. The maximum tolerated dose (MTD) was defined as the highest dose tested in which fewer than 33% of patients experienced a DLT. Review of study data led to expansion of dose cohort 3 while dose cohort 4 was evaluated. Dose cohort 4 was also expanded in the absence of DLTs. The recommended phase II dose was defined as a dose equal to or below the MTD and accounted for any cumulative or delayed toxicity beyond the DLT observation period.
Safety evaluations of hematology and chemistry were conducted weekly on days 1, 8, and 15 in cycles 1 and 2 and every 2 weeks thereafter. Physical examination, vital signs collection, performance status assessment, neurological exam, and coagulation level occurred at the start of every cycle. An ECG and chest X-ray were performed at baseline prior to starting treatment. Toxicities were assessed using NCI CTCAE version 4.03.

[2] = tested on: progressive or recurrent brain cancers; experiment: Tumor response by MRI (RANO criteria), PFS, survival, cycles received; format: in vivo, human
Description: Tumor response was assessed by MRI after every 2 treatment cycles, or earlier if clinically indicated, according to the Response Assessment in Neuro-Oncology criteria.

[3] = cited from earlier work
[4] = 21 patients evaluable for efficacy
[5] = dose cohort 1 (80 mg every 4 days)
[6] = dose cohort 1 (80 mg every 4 days), 2 response-evaluable
[7] = dose cohort 2 (120 mg every 4 days)
[8] = dose cohort 2 (120 mg every 4 days), 3 response-evaluable
[9] = dose cohort 3 (180 mg every 4 days)
[10] = dose cohort 3 (180 mg every 4 days), 6 response-evaluable
[11] = dose cohort 4 (280 mg every 7 days), 10 response-evaluable

## CN(C)C/C=C/C(=O)Nc1cc2c(Nc3ccc(F)c(Cl)c3)ncnc2cc1O[C@H]1CCOC1 [Afatinib]
[1]; human
  Acute kidney injury: % of patients with treatment-related AE: 4.2%
  Acute kidney injury: No. of patients with treatment-related AE: 1
  Amnesia: % of patients with treatment-related AE: 4.2%
  Amnesia: No. of patients with treatment-related AE: 1
  Anorexia: % of patients with treatment-related AE: 25%
  Anorexia: No. of patients with treatment-related AE: 6
  Bilateral blepharitis: % of patients with treatment-related AE: 4.2%
  Bilateral blepharitis: No. of patients with treatment-related AE: 1
  Bilateral intermittent leg cramps: % of patients with treatment-related AE: 4.2%
  Bilateral intermittent leg cramps: No. of patients with treatment-related AE: 1
  Blurred vision: % of patients with treatment-related AE: 4.2%
  Blurred vision: No. of patients with treatment-related AE: 1
  Candida Intertrigo: % of patients with treatment-related AE: 4.2%
  Candida Intertrigo: No. of patients with treatment-related AE: 1
  Confusion: % of patients with treatment-related AE: 8.3%
  Confusion: No. of patients with treatment-related AE: 2
  Constipation: % of patients with treatment-related AE: 12.5%
  Constipation: No. of patients with treatment-related AE: 3
  DVT: % of patients with treatment-related AE: 4.2%
  DVT: No. of patients with treatment-related AE: 1
  Diarrhea: % of patients with treatment-related AE: 75%
  Diarrhea: No. of patients with treatment-related AE: 18
  Dysgeusia: % of patients with treatment-related AE: 4.2%
  Dysgeusia: No. of patients with treatment-related AE: 1
  Dyspepsia: % of patients with treatment-related AE: 4.2%
  Dyspepsia: No. of patients with treatment-related AE: 1
  Dyspnea: % of patients with treatment-related AE: 4.2%
  Dyspnea: No. of patients with treatment-related AE: 1
  Edema limbs: % of patients with treatment-related AE: 16.7%
  Edema limbs: No. of patients with treatment-related AE: 4
  Fatigue: % of patients with treatment-related AE: 25%
  Fatigue: No. of patients with treatment-related AE: 6
  Fever: % of patients with treatment-related AE: 8.3%
  Fever: No. of patients with treatment-related AE: 2
  GERD: % of patients with treatment-related AE: 4.2%
  GERD: No. of patients with treatment-related AE: 1
  Gait disturbance: % of patients with treatment-related AE: 4.2%
  Gait disturbance: No. of patients with treatment-related AE: 1
  Gastroenteritis: % of patients with treatment-related AE: 4.2%
  Gastroenteritis: No. of patients with treatment-related AE: 1
  Headache: % of patients with treatment-related AE: 4.2%
  Headache: No. of patients with treatment-related AE: 1
  Hypokalemia: % of patients with treatment-related AE: 4.2%
  Hypokalemia: No. of patients with treatment-related AE: 1
  Ingrown nail: % of patients with treatment-related AE: 4.2%
  Ingrown nail: No. of patients with treatment-related AE: 1
  Insomnia: % of patients with treatment-related AE: 4.2%
  Insomnia: No. of patients with treatment-related AE: 1
  Memory impairment: % of patients with treatment-related AE: 4.2%
  Memory impairment: No. of patients with treatment-related AE: 1
  Metabolic acidosis: % of patients with treatment-related AE: 4.2%
  Metabolic acidosis: No. of patients with treatment-related AE: 1
  Metabolic encephalopathy: % of patients with treatment-related AE: 4.2%
  Metabolic encephalopathy: No. of patients with treatment-related AE: 1
  Nausea: % of patients with treatment-related AE: 37.5%
  Nausea: No. of patients with treatment-related AE: 9
  Palmar-Plantar Erythrodysesthesia: % of patients with treatment-related AE: 4.2%
  Palmar-Plantar Erythrodysesthesia: No. of patients with treatment-related AE: 1
  Paresthesia (lower extremities): % of patients with treatment-related AE: 4.2%
  Paresthesia (lower extremities): No. of patients with treatment-related AE: 1
  Pruritus: % of patients with treatment-related AE: 16.7%
  Pruritus: No. of patients with treatment-related AE: 4
  Rash acneiform: % of patients with treatment-related AE: 37.5%
  Rash acneiform: No. of patients with treatment-related AE: 9
  Rash maculo-papular: % of patients with treatment-related AE: 20.8%
  Rash maculo-papular: No. of patients with treatment-related AE: 6
  Rash: % of patients with treatment-related AE: 25%
  Rash: No. of patients with treatment-related AE: 6
  Skin atrophy: % of patients with treatment-related AE: 4.2%
  Skin atrophy: No. of patients with treatment-related AE: 1
  Skin ulceration: % of patients with treatment-related AE: 4.2%
  Skin ulceration: No. of patients with treatment-related AE: 1
  Thrombocytopenia: % of patients with treatment-related AE: 4.2%
  Thrombocytopenia: No. of patients with treatment-related AE: 1
  Vomiting: % of patients with treatment-related AE: 37.5%
  Vomiting: No. of patients with treatment-related AE: 9
[1]; human, po
  Mucositis oral: % of patients with treatment-related AE: 20.8%
  Mucositis oral: No. of patients with treatment-related AE: 5
  Recommended phase II dose: 280 mg
  Thrush (oral): % of patients with treatment-related AE: 4.2%
  Thrush (oral): No. of patients with treatment-related AE: 1
[1]
  Dose-limiting toxicities: no dose-limiting toxicities
[2]; [4]
  Disease stabilization, % of patients: 14.3%
  Disease stabilization, No. of patients: 3
  Partial response (RANO), % of patients: 9.5%
  Partial response (RANO), No. of patients: 2
  Progressive disease, No. of patients: Sixteen
[2]; all patients
  Median overall survival: 10.3 months
[2]; [5]
  PFS, Median: 44 days
  PFS, Range: 32 to 56 days
[2]; [6]
  Best Response CR, No. of patients: 0
  Best Response PD, No. of patients: 2
  Best Response PR, No. of patients: 0
  Best Response SD, No. of patients: 0
[2]; [7]
  PFS, Median: 42 days
  PFS, Range: 29 to 106 days
[2]; [8]
  Best Response CR, No. of patients: 0
  Best Response PD, No. of patients: 2
  Best Response PR, No. of patients: 1
  Best Response SD, No. of patients: 0
[2]; [9]
  PFS, Median: 78 days
  PFS, Range: 20 to 261 days
[2]; [10]
  Best Response CR, No. of patients: 0
  Best Response PD, No. of patients: 4
  Best Response PR, No. of patients: 0
  Best Response SD, No. of patients: 2
[2]; dose cohort 4 (280 mg every 7 days)
  PFS, Median: 56 days
[2]; [11]
  Best Response CR, No. of patients: 0
  Best Response PD, No. of patients: 8
  Best Response PR, No. of patients: 1
  Best Response SD, No. of patients: 1
[2]; glioblastoma
  Median overall survival: 5.2 months
[2]; overall
  Median progression-free survival: 2.0 months
[2]; patients with glioblastoma (n = 16)
  Progression-free survival rate at 6 months (PFS6): 0%
[3]; afatinib 40 mg daily, 11 patients, leptomeningeal metastases from NSCLC, steady-state day 8
  Median concentration of afatinib in CSF: 2.9 nM
[3]; daily afatinib, case of leptomeningeal carcinomatosis
  Afatinib concentration in the CSF: 0.05 nM
